Assay results published in paper PMC6804243, “Small-Molecule Inhibition of UBE2T/FANCL-Mediated Ubiquitylation in the Fanconi Anemia Pathway” (ACS Chemical Biology, 2019).
Like-named read-outs stand apart in the source and are kept apart here.

Assays:
[1] = target: T1, UBE2T/FANCLRING (ubiquitylation of GST-FANCLRING) (Homo sapiens, UniProt Q9NW38); assay: biochemical; conditions: for LE: ligand efficiency = 1.4(–logIC50)/HAC; for inhibition at 20 µM: read-out: Primary screen % Inhibition (20 M)
T1 sequence (Q9NW38 275-375 limits assumed): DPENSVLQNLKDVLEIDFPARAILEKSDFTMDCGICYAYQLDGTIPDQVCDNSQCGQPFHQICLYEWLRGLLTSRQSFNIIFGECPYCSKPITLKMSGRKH
Source text: To identify small-molecule inhibitors of the FA pathway, we developed a high-throughput screen (HTS) compatible assay based on the FA ubiquitylation cascade (see Figure 1a, as well as Figure S1 in the Supporting Information). Given the complexity of the full FA ubiquitylation cascade, we constructed a simplified ubiquitylation reaction that would be robust for HTS purposes yet still provide many relevant protein species for small molecules to interact with. The recombinant protein assay developed used homogeneous time-resolved fluorescence (HTRF) and contained Cy5-labeled ubiquitin, the E1 enzyme UBE1, the E2 enzyme UBE2T, and the RING domain (residues 275–375) of the E3 FANCL (FANCLRING). FANCLRING was used as a surrogate substrate for ubiquitylation in the absence of the FA core and FANCD2/FANCI complexes.
Figure 1 Screening for inhibitors of the FA pathway. (a) Schematic of the HTRF ubiquitylation assay. Ubiquitylation of GST-tagged E3 (FANCLRING) by the E2 (UBE2T) places Cy5-labeled ubiquitin in close proximity to the anti-GST Tb cryptate. Excitation of the Tb cryptate donor results in FRET to the Cy5 acceptor. Simultaneous monitoring of the donor emission (620 nm) and acceptor emission (665 nm) allows for determination of the 665/620 ratio. (b) HTRF screen results showing average inhibition (n = 2) produced by compounds at 20 μM (in-house diversity library; 10 111 compounds) and 10 μM (Selleckchem epigenetic library; 119 compounds). Numbers given in parentheses represent the number of compounds per inhibition threshold.
Purified protein was concentrated using a Vivaspin-6 concentrator with a 10 kDa MW cut-off (Vivascience) and flash-frozen in small aliquots for storage at […]
Cy5 labelling of ubiquitin. To a 5 mg/mL solution of recombinant human ubiquitin (Boston Biochem) in 0.1 M NaHCO3 pH 8.3, was added a 4-fold molar excess of Cyanine5 NHS ester (Lumiprobe). The reaction was incubated at 23 °C for 4 hours in the dark. The protein was separated from unreacted dye by passage through a PD-10 desalting column (GE Healthcare) equilibrated with PBS. Purified protein was concentrated using a Vivaspin-6 concentrator with a 3 kDa MW cut-off (Vivascience) and flash-frozen in small aliquots for storage […]
Homogeneous Time-Resolved Fluorescence (HTRF) Assay. GST-FANCLRING (200 nM) was incubated with anti-GST Tb (CisBio, #61GSTTL) (2.5 ng final) at room temperature for 30 minutes in assay buffer (50 mM Tris-HCl pH 8.0, 1 mM TCEP, 5 mM MgCl2, 0.005% Tween-20). Meanwhile, 10 μL of UBE2T in assay buffer (or assay buffer alone for no enzyme controls) was incubated in a white 384-well plate (Corning) with 20 nL DMSO or compound in DMSO. After 30 minutes, the GST-RINGRING solution was added to an equal volume solution containing His-UBE1 (Boston Biochem) (16 nM), Cy5-ubiquitin (400 nM), ATP (0.8 mM) in assay buffer. 10 μL of this solution was immediately added to each well of the 384 -well plate containing UBE2T or buffer. F inal concentrations: His -UBE1 (4 nM), UBE2T (6 nM), GST -RINGRING (50 nM), Cy5-ubiquitin (100 nM), ATP (0.2 mM), compound (10 or 20 μM) in 0.1 %
(v/v) DMSO. After a 10 minute incubation at 23 °C, 5 µL of a 50 mM EDTA solution were added to each well to stop the reaction. Signal was measured at λEx 340 nm and λEm 665 nm and 620 nm using a PHERAstar FS plate reader
(BMG Labtech). A ratio was calculated as [λEm(665)/λEm(620)] × 104 for each well and this was used to determine the percent inhibition for test compounds.
Gel-based ubiquitylation assays. Assays were carried out in a total volume of 10 µL containing 20 nM His6-UBE1 (Boston Biochem), 50 nM UBE2T, 250 nM GST-E3 and 500 nM biotinylated ubiquitin (Boston Biochem) in buffer (50

[2] = system: FANCD2 foci and γH2AX in U2OS cells; assay: High-throughput high content indirect immunofluorescence (FANCD2 foci, γH2AX); type: cell-based; conditions: CU2 500 μM, HU 2.5 mM 8 h, cisplatin 10 μM 8 h; for H2AX positive nuclei, Experiment 1 / H2AX positive nuclei, Experiment 2 / H2AX positive nuclei, Experiment 3: CU1 200 μM, raw data; for H2AX positive nuclei, Totals: sum of experiments 1-3, CU1 200 μM
Protocol: In response to DNA damage, mUb-FANCD2 accumulates at sites of DNA lesions to form foci, promote DNA-damage sensing, activate cell-cycle checkpoints, and promote DNA repair.[23] Therefore, we employed high-throughput high-content indirect immunofluorescence studies to examine the effect of CU1 and CU2 on mUb-FANCD2 focus formation. The experimental format used was similar to the immunoblot-based experiments, excepting that, following treatment with HU (2.5 mM for 8 h) or cisplatin (10 μM for 8 h), cells were fixed, permeabilized and stained with specific FANCD2 primary and fluorescent secondary antibodies. In addition to monitoring mUb-FANCD2 foci, γH2AX was evaluated as a marker of DNA damage induction, and cell nuclei were visualized by 4′,6-diamidino-2-phenylindole (DAPI) staining. […] These observations are in accord with the immunoblot-based experiments wherein reductions in mUb-FANCD2 were observed (Figure 3a).
Figure 4 Further cell-based assays with CU1 and CU2: (a, b) Representative immunofluorescence images of U2OS cells treated with HU (2.5 mM, 8 h) or cisplatin (10 μM, 8 h) in the presence or absence of CU1 (200 μM) or CU2 (500 μM). (c) Quantification of the number of FANCD2 foci in cells treated as in panels (a) and (b). Data accumulated over three independent experiments, each consisting of three technical replicas. (d) IncuCyte analysis of U2OS cells treated with or without carboplatin (15 μM) and CU2 (250 μM). Mean calculated from three wells, four images per well. (HU = DMSO + HU, cisplatin = DMSO + cisplatin). […]
buffer (1 hour at room temperature) followed by three washes with PBST. Cells were then counterstained with DAPI (25 µg/mL) and mounted using Vectashield […]
High-throughput high content indirect immunofluorescence. U2OS cells, seeded in a 96-well plate, were treated with compound for 1 hour followed by 2.5 mM HU or 10 µM cisplatin for 8 hours. Cells were washed 3 times with wash buffer (1xPBS, 0.1% Tween-20) before being fixed in 2% paraformaldehyde (w/v) for 20 minutes at 23 °C. The cells were then washed a further 3 times in wash buffer before being stored overnight at 4°C in the final wash. Next day, the cells were permeabilized using 1xPBS, 0.5% Triton X-100 for 15 minutes at 23 °C and then washed 3 times with wash buffer before blocking with 5% BSA in 1xPBS, 0.1% Tween-20 for 30 minutes at 23 °C. After washing 3 times with wash buffer, the cells were incubated for 1 hour at 23 °C in the presence of primary antibodies (1:50 FANCD2, Santa Cruz, mouse monoclonal and 1:250 γH2AX, Cell Signalling, rabbit) in 5% BSA in wash buffer. After incubation in the presence of primary antibodies, the cells were washed 3 times with wash buffer before being incubated with secondary antibodies in 5% BSA in wash buffer for 1 hour in the dark at 23 °C. The secondary antibodies used were goat anti-mouse AlexaFluor 488 and goat anti-rabbit AlexaFluor 594 (both from Molecular Probes, Invitrogen). The cells were then washed a further 3 times with wash buffer before being stained in the presence of 2 µg/ml DAPI (Sigma D9542) in wash buffer for 10 minutes in the dark at 23 °C. After DAPI staining, the cells were washed 3 more times with wash buffer and stored in the final wash until ready for imaging.
A spinning-disk Opera PhenixTM (Perkin Elmer) microscope equipped with a 40x water immersion objective was employed to acquire 10 confocal images for each well in a single optimized focal plane comprising three fluorescence channels: 405, 488 and 568 nm for DAPI, Alexa Fluor 488 and Alexa Fluor 594, respectively. Image analysis and evaluation was done using Harmony High-Content Imaging and Analysis software. DAPI staining (405 nm) was used to segment nuclei, which were further gated for the presence of γH2AX staining

U2OS cells = assay: IncuCyte cell proliferation assay; type: cell-based; conditions: 15 μM carboplatin in DMSO-treated cells
Protocol: Figure 4 Further cell-based assays with CU1 and CU2: (a, b) Representative immunofluorescence images of U2OS cells treated with HU (2.5 mM, 8 h) or cisplatin (10 μM, 8 h) in the presence or absence of CU1 (200 μM) or CU2 (500 μM). (c) Quantification of the number of FANCD2 foci in cells treated as in panels (a) and (b). Data accumulated over three independent experiments, each consisting of three technical replicas. (d) IncuCyte analysis of U2OS cells treated with or without carboplatin (15 μM) and CU2 (250 μM). Mean calculated from three wells, four images per well. (HU = DMSO + HU, cisplatin = DMSO + cisplatin).
Finally, to investigate if CU1 and CU2 could sensitize cells to a more clinically relevant chemotherapeutic agent, quantitative live cell analyses were performed using the IncuCyte platform. As the FA pathway is involved in the repair of ICLs, cells were treated with the ICL-inducing chemotherapeutic drug, carboplatin. For this experiment, U2OS cells were seeded at a relatively low (<10%) density and preincubated with CU1 or CU2 for 1 h. Carboplatin was then added to the cells and images were taken every 6 h for 8 days in order to monitor growth and proliferation of the cells.
Reaction mixtures were incubated for the indicated time at 37 °C and stopped by the addition of 2X reducing SDS -PAGE sample buffer, separated on NuPAGE Novex 4 –12% Bis/Tris gradient gels (Invitrogen) and visualized by Western blotting using the indicated antibodies (Table S3).
Cell culture. U2OS cells were cultured at 37 °C in a humidified atmosphere and 5% (v/v) CO2 in Dulbecco's Modified Eagle Medium (DMEM; Sigma-Aldrich) supplemented with 10% (v/v) fetal bovine serum (FBS), 100 units/ml of penicillin, […] of streptomycin and 292 μg/mL L-glutamine.
Cell extract preparation and immunoblotting. U2OS cells were lysed in buffer containing 50 mM Tris-HCl pH 7.5, 2% SDS, 10 mM NEM, cocktail protease inhibitor (Roche) and phosphatase inhibitor cocktail followed by sonication 100 µg of extracts were boiled for 5 mins at 95 °C in 5X loading buffer and loaded onto NuPAGE Novex 4–12% Bis/Tris gradient gels
(Invitrogen), or NuPAGE Novex 3-8% Tris/Acetate gradient gels (Invitrogen) for detection of mUb-FANCD2. After separation the gels were transferred to PVDF and the membranes were blocked with Tris-buffered saline containing 0.1% (v/v) Tween-20 (TBST) and 5% (v/v) bovine serum albumin (BSA) and incubated with the indicated primary and secondary antibodies. mUb-FANCD2 intensity was quantified using Image Studio (LI-COR).
IncuCyte cell proliferation assays. 2000 U2OS cells were seeded per well in 96-well plates and treated with compounds 24 hours afterwards. After 1 hour of compound treatment, 15 µM carboplatin (Sigma-Aldrich) was added and the cells were cultured in an incubator with an IncuCyte microscopy -platform (Essen BioScience). Phase -contrast images were acquired every 6 hours for 8 days until DMSO-carboplatin treated cells reached >80% confluence. Cell proliferation was monitored as the occupied area (% confluence) of cell images over time and calculated as percentage confluence over time. Cell confluency percentages were calculated using the integrated Cell Player software and results were analysed with Prism 6 (GraphPad Software).

[3] = library stock, 10-point dose-response, read-out: Primary screen IC50
[4] = printed beside the structures in Figure S3, read-out: IC50 (Figure S3)

COc1ccc(CNC(=O)c2ccc(-n3nccc3C)cc2)cc1C(=O)O [CU3]
IC50 [1, 3]: 51.8 µM
LE [1]: 0.22
IC50 [1, 4]: 49.8 µM
inhibition at 20 µM [1]: 20.3%

Cc1cc(C(=O)O)cc(S(=O)(=O)Nc2ccccc2-n2cccn2)c1C [CU4]
IC50 [1, 3]: 61 µM
LE [1]: 0.22
IC50 [1, 4]: 82.5 µM
inhibition at 20 µM [1]: 20.7%

O=C(c1ccc2n[nH]nc2c1)N1CCC(COc2ccccc2)CC1 [CU6]
IC50 [1, 3]: 30.8 µM
LE [1]: 0.26
IC50 [1, 4]: 25.8 µM
inhibition at 20 µM [1]: 37%

Cc1nc2ccccc2n1CCNS(=O)(=O)c1ccc2c(c1)CC(=O)N2 [CU7]
IC50 [1, 3]: 64.2 µM
LE [1]: 0.24
IC50 [1, 4]: 35.3 µM
inhibition at 20 µM [1]: 39.6%

Cn1ncc(C#N)c1NC(=O)Cc1coc2cc3c(cc12)CCC3 [CU8]
IC50 [1, 3]: 33.7 µM
LE [1]: 0.24
IC50 [1, 4]: 73.2 µM
inhibition at 20 µM [1]: 34%

NC(=O)NO [HU, Hydroxyurea, reference compound]
H2AX positive nuclei, Experiment 1 [2]: 390
H2AX positive nuclei, Experiment 2 [2]: 672
H2AX positive nuclei, Experiment 3 [2]: 708
H2AX positive nuclei, Totals [2]: 1770

N.N.O=C([O-])C1(C(=O)[O-])CCC1.[Pt+2] [carboplatin, reference compound]
proliferation rate (U2OS cells): clear reduction in proliferation rate
confluency (U2OS cells; after 8 days): < 100%

N.N.[Cl][Pt][Cl] [cisplatin, reference compound]
H2AX positive nuclei, Experiment 1 [2]: 915
H2AX positive nuclei, Experiment 2 [2]: 1122
H2AX positive nuclei, Experiment 3 [2]: 1056
H2AX positive nuclei, Totals [2]: 3093
